The values below come from US7691825B2, “Adenosine A2B receptor agonists” (King Pharmaceuticals Research and Development, Inc., priority 2006, dated 2010).

In data set [1] the target is T1, hA2B receptors expressed in CHO cells (Homo sapiens, UniProt P29275).
T1 construct: expressed in transfected cells; host or cells: CHO cells
T1 sequence (P29275 1-332): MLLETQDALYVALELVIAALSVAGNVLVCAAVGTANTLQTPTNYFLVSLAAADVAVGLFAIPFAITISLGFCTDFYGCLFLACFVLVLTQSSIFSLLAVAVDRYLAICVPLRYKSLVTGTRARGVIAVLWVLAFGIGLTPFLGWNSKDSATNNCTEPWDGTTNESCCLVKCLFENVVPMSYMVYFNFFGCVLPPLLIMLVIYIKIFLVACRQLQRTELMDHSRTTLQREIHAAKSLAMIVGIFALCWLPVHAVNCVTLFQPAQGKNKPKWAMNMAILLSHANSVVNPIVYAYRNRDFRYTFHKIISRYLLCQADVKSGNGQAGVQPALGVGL
In words: cAMP assay hA2B CHO cells. The format is cell-based. To be noted: for EC50: stimulation of cAMP levels, hA2B CHO cells, mean ± s.e. mean; for Selectivity hA1/hA2B: ratio hA1 Ki / hA2B EC50; for Selectivity hA2A/hA2B: ratio hA2A Ki / hA2B EC50; for Selectivity hA3/hA2B: ratio hA3 IC50 / hA2B EC50. As for the experimental part:
The effects of the tested compounds may be evaluated in functional assays measuring the stimulatory capability of the ligands to increase cAMP levels in hA2B receptors expressed in CHO cells. This may done as described by Pastorin et al. in “Pyrazolo[4,3-e]-1,2,4-triazolo[1,5-c]pyrimidine derivatives as adenosine receptor antagonists.
(§1) For cell preparation CHO cells transfected with human A2B or A3 receptors are washed with phosphate-buffered saline and diluted trypsin, and centrifuged for 10 min at 200 g. […] After the preincubation time at 37° C., the examined ligands (1 nM-10 μM) are added to the mixture and incubated for a further 5 min. The reaction is terminated by the addition of cold 6% trichloroacetic acid (TCA). The TCA suspension is centrifuged at 2000 g for 10 min at 4° C. and the supernatant is extracted four times with water saturated diethyl ether. […] Samples of cyclic AMP standard (0-10 pmoles) are added to each test tube containing the incubation buffer (trizma base 0.1 mM, aminophylline 8.0 mM, 2-mercaptoethanol 6.0 mM, pH 7.4) and [^3H]cyclic AMP in total volume of 0.5 mL. The binding protein previously incubated at 4° C. for 150 min, and after the addition of charcoal is centrifuged at 2000 g for 10 min. The clear supernatant is counted in a Beckman scintillation counter.

The target in data set [2] is T2, hA1 receptors expressed in CHO cells (Homo sapiens, UniProt P30542).
T2 sequence (P30542 1-326): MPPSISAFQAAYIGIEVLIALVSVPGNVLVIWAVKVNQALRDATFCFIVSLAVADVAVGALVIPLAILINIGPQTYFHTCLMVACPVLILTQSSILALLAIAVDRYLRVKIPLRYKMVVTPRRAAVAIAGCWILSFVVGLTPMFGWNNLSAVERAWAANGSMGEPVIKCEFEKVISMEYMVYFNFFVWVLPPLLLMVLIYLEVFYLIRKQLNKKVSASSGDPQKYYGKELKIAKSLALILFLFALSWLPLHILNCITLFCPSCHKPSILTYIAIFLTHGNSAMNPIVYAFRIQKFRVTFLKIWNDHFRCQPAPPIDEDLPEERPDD
Description: [3H]CHA binding hA1 CHO cells.
Description: (§2) The cells are grown adherently and maintained in Dulbecco's Modified Eagles Medium with nutrient mixture F12 (DMEM/F12) without nucleosides, containing 10% fetal calf serum, penicillin (100 U/mL), streptomycin (100 μg/mL), L-glutamine (2 mM) and Geneticin (G418, 0.2 mg/mL) at 37° C. in 5% CO2/95% air. […] For membrane preparation the culture medium is removed and the cells are washed with PBS and scraped off T75 flasks in ice-cold hypotonic buffer (5 mM Tris HCl, 2 mM EDTA, pH 7.4). The cell suspension is homogenized and centrifuged for 30 min at 100,000×g. The membrane pellet is re-suspended in 50 mM Tris HCl buffer pH 7.4 and incubated with 2 UI/mL of adenosine deaminase for 30 min at 37° C.
(§3) Binding of 1 nM [^3H]—CHA to hA1CHO cells (50 μg of protein/assay) is performed using 50 mM Tris HCl buffer pH 7.4 and at least 6-8 different concentrations of agonists studied for an incubation time of 150 min at 25° C. […] Non-specific binding is determined in the presence of 10 μM of CHA and is about 20% of the total binding. […] Filter bound radioactivity is measured by scintillation spectrometry after addition of 5 mL of Aquassure.
(§4) All experimental data are expressed as the mean±standard error of the mean (s.e. mean) of three or four independent experiments performed in duplicate.

Data set [3] addresses T3, human A3 receptors in CHO cells (Homo sapiens, UniProt P0DMS8).
T3 construct: expressed in transfected cells; host or cells: CHO cells
T3 sequence (P0DMS8 1-318): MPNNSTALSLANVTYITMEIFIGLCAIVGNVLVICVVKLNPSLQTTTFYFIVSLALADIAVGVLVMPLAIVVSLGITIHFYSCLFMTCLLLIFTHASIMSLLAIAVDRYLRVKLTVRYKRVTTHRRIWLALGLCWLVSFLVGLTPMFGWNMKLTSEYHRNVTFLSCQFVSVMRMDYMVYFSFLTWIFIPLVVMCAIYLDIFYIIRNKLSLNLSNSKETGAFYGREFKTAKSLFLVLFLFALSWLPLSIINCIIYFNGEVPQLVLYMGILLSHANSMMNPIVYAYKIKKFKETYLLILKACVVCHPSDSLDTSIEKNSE
Description: cAMP assay hA3 CHO cells. The format is cell-based. The following applies: cyclic AMP assay, mean ± s.e. mean. As for the experimental part: as §1

For data set [4], the target named is T4, hA2A receptors expressed in CHO cells (Homo sapiens, UniProt P29274).
T4 construct: expressed in transfected cells; host or cells: CHO cells (stably transfected, per Klotz et al. 1998); membrane preparation
T4 sequence (P29274 whole entry): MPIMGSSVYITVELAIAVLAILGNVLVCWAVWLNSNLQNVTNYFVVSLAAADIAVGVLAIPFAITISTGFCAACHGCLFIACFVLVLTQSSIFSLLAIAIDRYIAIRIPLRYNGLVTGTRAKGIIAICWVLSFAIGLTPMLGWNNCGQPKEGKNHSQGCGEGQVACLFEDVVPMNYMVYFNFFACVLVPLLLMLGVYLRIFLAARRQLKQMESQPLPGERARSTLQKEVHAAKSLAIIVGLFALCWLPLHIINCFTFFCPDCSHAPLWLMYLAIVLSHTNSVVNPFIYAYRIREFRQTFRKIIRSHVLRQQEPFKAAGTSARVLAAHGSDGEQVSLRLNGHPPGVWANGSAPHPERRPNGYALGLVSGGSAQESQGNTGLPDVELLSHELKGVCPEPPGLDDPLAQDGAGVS
Description: [3H]CGS21680 binding hA2A CHO cells. The following applies: [3H]-CGS 21680, hA2A CHO cell membranes, 180 min at 25° C.; mean ± s.e. mean.
Description: as §2, §3, §4

Molecules are shown by their SMILES. Where “and” joins values, the source holds several entries; their conditions need not be identical. Identical values can stand only once. Like-named read-outs stand apart in the source and are kept apart here.

For the molecule `CCNC(=O)[C@H]1O[C@@H](n2cnc3c(NNC(=O)c4ccccc4)ncnc32)[C@H](O)[C@@H]1O` [Compound 9b, (2S, 3S, 4R, 5R)-5-[6-(N′-Benzoyl-hydrazino)-9H-purin-9-yl]-3,4-dihydroxy-tetrahydrofuran-2 carboxylic acid ethylamide], the melting point is 174 to 175 °C and 173 to 174 °C. The EC50 in data set [1] was more than 1000 nM. Moreover, the Ki in data set [2] was more than 1000 nM. In data set [3], the IC50 is more than 1000 nM. In addition, the Ki in data set [4] is more than 1000 nM.

In the case of `CCNC(=O)[C@H]1O[C@@H](n2cnc3c(NNC(=O)c4ccc(Cl)cc4)ncnc32)[C@H](O)[C@@H]1O` [Compound 10b, (2S, 3S, 4R, 5R)-5-{6-[N′-(4-Chlorobenzoyl)-hydrazino]-9H-purin-9-yl}-3,4-dihydroxy-tetrahydrofuran-2-carboxylic acid ethylamide], the melting point was 188 to 189 °C. In addition, the EC50 in data set [1] is more than 1000 nM. This molecule came in with an inhibition constant (Ki) in data set [2] of more than 1000 nM. For the same molecule, the IC50 in data set [3] was more than 1000 nM. The molecule also showed a Ki in data set [4] of more than 1000 nM.

`CCNC(=O)[C@H]1O[C@@H](n2cnc3c(NNC(=O)c4cccnc4)ncnc32)[C@H](O)[C@@H]1O` [Compound 11b, (2S, 3S, 4R, 5R)-3,4-Dihydroxy-5-{6-[N′-(pyridine-3-carbonyl)-hydrazino]-9H-purin-9-yl}-tetrahydrofuran-2-carboxylic acid ethylamide]: the melting point is 170 °C. Also, the EC50 in data set [1] is more than 1000 nM. In addition, the Ki in data set [2] is more than 1000 nM. The molecule further registered an IC50 in data set [3] of more than 1000 nM. Also, in data set [4], the Ki is more than 1000 nM.

`CCNC(=O)[C@H]1O[C@@H](n2cnc3c(NNC(=O)c4ccco4)ncnc32)[C@H](O)[C@@H]1O` [Compound 12b, (2S, 3S, 4R, 5R)-5-{6-[N′-(Furan-2-carbonyl)-hydrazino]-9H-purin-9-yl}-3,4-dihydroxy-tetrahydrofuran-2-carboxylic acid ethylamide] came in with a melting point of 233 to 234 °C. Moreover, in data set [1], the “Selectivity hA1/hA2B” value is more than 12.19, the “Selectivity hA2A/hA2B” value is listed as more than 12.19, the “Selectivity hA3/hA2B” value was more than 12.19 and the EC50 stood at 82 ± 10 nM. For the same molecule, the inhibition constant (Ki) in data set [2] is more than 1000 nM. Besides, the 50% inhibitory concentration (IC50) in data set [3] was more than 1000 nM. Further, the Ki in data set [4] was more than 1000 nM.

The molecule `CCNC(=O)[C@H]1O[C@@H](n2cnc3c(NNC(=O)c4ccc(Br)o4)ncnc32)[C@H](O)[C@@H]1O` [Compound 13b, (2S, 3S, 4R, 5R)-5-{6-[N′-(5-Bromo-furan-2-carbonyl)-hydrazino]-9H-purin-9-yl}-3,4-dihydroxy-tetrahydrofuran-2-carboxylic acid ethylamide] gave a melting point of 171 °C.

In turn, `CCNC(=O)[C@H]1O[C@@H](n2cnc3c(NNC(=O)c4ccc(C)o4)ncnc32)[C@H](O)[C@@H]1O` [Compound 14b, (2S, 3S, 4R, 5R)-3,4-Dihydroxy-5-{6-[N′-(5-methyl-furan-2-carbonyl)-hydrazino]-9H-purin-9-yl}-tetrahydrofuran-2-carboxylic acid ethylamide] gave a melting point of 154 to 155 °C. In data set [1], the “Selectivity hA1/hA2B” value came to 3.08; the “Selectivity hA2A/hA2B” value is given as 5.73; the “Selectivity hA3/hA2B” value is on record as more than 4.40; the midpoint of the response, the EC50, lay at 227 ± 18 nM. The Ki in data set [2] (read-out: [3H]CHA binding hA1 CHO cells Ki, 1 nM [3H]-CHA, hA1 CHO cell membranes, 150 min at 25° C., mean ± s.e. mean) was 700 ± 25 nM. In data set [3], this molecule came in with an IC50 of more than 1000 nM. The molecule also registered a Ki in data set [4] of 1300 ± 50 nM.

`CCNC(=O)[C@H]1O[C@@H](n2cnc3c(NNC(=O)c4nc([N+](=O)[O-])cn4C)ncnc32)[C@H](O)[C@@H]1O` [Compound 15b, (2S, 3S, 4R, 5R)-3,4-Dihydroxy-5-{6-[N′-(1-methyl-4-nitro-1H-imidazole-2-carbonyl)-hydrazino]-9H-purin-9-yl}-tetrahydrofuran-2-carboxylic acid ethylamide]: the melting point fell in the range of 169 to 170 °C. Further, in data set [1], the EC50 is more than 1000 nM. The molecule also registered an inhibition constant (Ki) in data set [2] of more than 1000 nM. In data set [3], the IC50 is more than 1000 nM. The molecule further yielded an inhibition constant Ki in data set [4] of more than 1000 nM.

`CCNC(=O)[C@H]1O[C@@H](n2cnc3c(NNC(=O)c4ccc(C)s4)ncnc32)[C@H](O)[C@@H]1O` [Compound 16b, (2S, 3S, 4R, 5R)-3,4-Dihydroxy-5-{6-[N′-(5-methyl-thiophene-2-carbonyl)-hydrazino]-9H-purin-9-yl}-tetrahydrofuran-2-carboxylic acid ethylamide] displayed a melting point of 153 to 154 °C. In addition, in data set [1], the “Selectivity hA1/hA2B” value was more than 3.66; the “Selectivity hA2A/hA2B” value is more than 3.66; the “Selectivity hA3/hA2B” value is reported as more than 3.66; the midpoint of the response, the EC50, lay at 273 ± 12 nM. In addition, the Ki in data set [2] was more than 1000 nM. Also, the IC50 in data set [3] was more than 1000 nM. For the same molecule, the inhibitory constant (Ki) in data set [4] is more than 1000 nM.

`CCNC(=O)[C@H]1O[C@@H](n2cnc3c(NNC(=O)c4ccccc4)nc(Cl)nc32)[C@H](O)[C@@H]1O` [Compound 17b, (2S, 3S, 4R, 5R)-5-[6{N′-Benzoyl-hydrazino)-2-chloro-9H-purin-9-yl}-3,4-dihydroxy-tetrahydrofuran-2-carboxylic acid ethylamide] had a melting point of 253 to 254 °C. In data set [1], the EC50 is more than 1000 nM. In data set [2], this molecule displayed an inhibition constant Ki of more than 1000 nM. This molecule came in with an IC50 in data set [3] of more than 1000 nM. The molecule further displayed a Ki in data set [4] of more than 1000 nM.

As to `CCNC(=O)[C@H]1O[C@@H](n2cnc3c(NNC(=O)c4ccco4)nc(Cl)nc32)[C@H](O)[C@@H]1O` [Compound 18b, (2S, 3S, 4R, 5R)-5-{2-Chloro-6-[N′-(furan-2-carbonyl)-hydrazino]-9H-purin-9-yl}-3,4-dihydroxy-tetrahydrofuran-2-carboxylic acid ethylamide], the melting point lay in the range of 269 to 270 °C. Also, in data set [1], the “Selectivity hA1/hA2B” value is more than 4.76, the “Selectivity hA2A/hA2B” value is listed as more than 4.76, the “Selectivity hA3/hA2B” value is given as more than 4.76 and the concentration for a half-maximal effect (EC50) was found to be 210 ± 13 nM. For the same molecule, the Ki in data set [2] is more than 1000 nM. Moreover, the IC50 in data set [3] is more than 1000 nM. This molecule showed a Ki in data set [4] of more than 1000 nM.

Turning to `CCNC(=O)[C@H]1O[C@@H](n2cnc3c(NNC(=O)c4ccc(C)s4)nc(Cl)nc32)[C@H](O)[C@@H]1O` [Compound 19b, (2S, 3S, 4R, 5R)-5-{2-Chloro-6-[N′-(5-methyl-thiophene-2-carbonyl)-hydrazino]-9H-purin-9-yl}-3,4-dihydroxy-tetrahydrofuran-2-carboxylic acid ethylamide], the melting point was 156 °C. Besides, in data set [1], the “Selectivity hA1/hA2B” value was more than 5.71, the “Selectivity hA2A/hA2B” value is reported as more than 5.71, the “Selectivity hA3/hA2B” value is reported as more than 5.71 and the EC50 stood at 175 ± 20 nM. In data set [2], the inhibition constant Ki is more than 1000 nM. The molecule also had a concentration for half-maximal inhibition (IC50) in data set [3] of more than 1000 nM. In data set [4], the inhibition constant (Ki) was more than 1000 nM.
